{"source": "paper PMC12689647", "about": "“Evaluation of bromadiolone combined with ciprofloxacin, vitamin D, aspirin, and cinnamon as an apoptosis-mediated rodenticide strategy” (Scientific Reports, 2025)", "format_in_all_cases": "in vivo, Rattus norvegicus", "key": {"p21": {"test_system": "p21", "assay": "Western blot of liver tissue, p21", "details": "Western blot normalized to β-actin, oral, 21 days", "protocol": "(§1) Adult male rats (n = 7 × 9 = 63), weighing 150–200 g, were randomized and divided into seven groups. Group I served as the control. Group II received the vehicle control (0.1 ml/100 g ethanol). Group III was treated with bromadiolone (B) at ½ LD₅₀ (0.8 mg/kg)[28]. Group IV received bromadiolone (0.8 mg/kg) + ciprofloxacin (Anti.20 mg/kg)[29]. Group V received bromadiolone (0.8 mg/kg) + ciprofloxacin (20 mg/kg) + vitamin D (Vit. D 35 mg/kg)[30]. Group VI received bromadiolone (0.8 mg/kg) + ciprofloxacin (20 mg/kg) + vitamin D (35 mg/kg) + cinnamon (Cin. 2 g/kg)[31]. Group VII received bromadiolone (0.8 mg/kg) + ciprofloxacin (20 mg/kg) + vitamin D (35 mg/kg) + aspirin (A. 150 mg/kg)[32]. All doses were administered orally to wild rats over 21 days. The chemical we used for the euthanizing process: rats were narcotized by Ketamine + xylazine injection (IP) and then sacrificed by slaughtering.\nFor the immunodetection and quantification of proteins such as p21 and cleaved caspase-3, markers of apoptotic cell death under various treatments, liver tissue was homogenized using RIPA lysis buffer. The samples were chopped and briefly sonicated on ice, and protein concentration was measured. Proteins (20 µg) were separated using SDS-PAGE and transferred to a nitrocellulose membrane. […] The optical densities of the bands were quantified and normalized to β-actin (1:5000) using ImageJ software."}, "male wild rats": {"test_system": "male wild rats", "assay": "Serum measurements (AST, ALT, Ca2+, RBCs, Hgb, PT)", "details": "oral, 21 days", "protocol": "as §1\n(§2) Determination of ionized calcium, RBC count, Hb, and prothrombin time (PT) was conducted at a private biochemical laboratory in Assiut, Egypt, using a Genuri KT-6400 automatic hematology analyzer (China). ALT and AST activities in blood plasma were measured using specific kits (Boehringer Mannheim, Mannheim, Germany) according to the manufacturer’s instructions. […]. The concentration of reduced glutathione (GSH) was estimated based on[37] and measured using spectrophotometry."}, "liver of male wild rats [1]": {"test_system": "liver of male wild rats", "assay": "Semi-quantitative scoring of histopathological lesions in the liver (H&E)", "set-up": "key to Fatty deposition / Hemorrhage / Thickening of blood vessels / Loss of liver architecture: (-) Absent lesion; (+) Slight (< 25%); (++) Moderate (from 25–50%); (+++) Severe (> 50%)", "details": "liver H&E lesion score; oral, 21 days", "protocol": "as §1\n. Hematoxylin, eosin stains was applied to 5 μm-thick paraffin Sect[38]. Four categories were established based on the histological evaluation of nine liver tissue lesions: (−) no lesion, (+) mild (less than 25%), (++) moderate (between 25% and 50%), and (+++) severe (more than 50%)[39]. We examined about 5 photos for each rat in each groups; 5 × 63 = 315 photos for assessments. Examination and photography were conducted using a digital camera (ToupTek ToupView, copyright 2019, version x86, compatible with Windows XP/Vista/7/8/10, China) and a light microscope (Olympus CX31, Japan)."}, "p53": {"test_system": "p53", "assay": "Immunohistochemical detection of p53 in liver sections", "details": "liver immunohistochemistry; oral, 21 days", "protocol": "as §1\nUsing xylene, paraffin-embedded tissues were deparaffinized and then rehydrated through a graded series of ethanol solutions. Antigen retrieval was performed by boiling the slides in 1 mM EDTA. The sections were then incubated in 3% H2O2 for ten minutes, washed with wash buffer (1X PBS) for five minutes, and blocked for one hour at room temperature. A 1:1000 dilution of the p53 primary antibody was then applied. […]"}, "liver of male wild rats [2]": {"test_system": "liver of male wild rats", "assay": "Hepatic lipid peroxidation (LPO) and reduced glutathione (GSH)", "details": "oral, 21 days", "protocol": "as §1, §2"}}}
{"smiles": "O=c1oc2ccccc2c(O)c1C(CC(O)c1ccc(-c2ccc(Br)cc2)cc1)c1ccccc1", "note": "(centres unmarked) [Bromadiolone]", "values": [{"measurement": "increase in p21 level compared to the control", "setting": "p21", "result": 96.65, "unit": "%"}, {"measurement": "Ca2+ serum, Mean ± SE", "setting": "male wild rats; control 4.640 ± 0.2943", "result": "13.15 ± 0.9675", "unit": "mg/dL"}, {"measurement": "RBCs serum, Mean ± SE", "setting": "male wild rats; control 11.08 ± 0.1956", "result": "8.240 ± 0.5015", "unit": "M/µl"}, {"measurement": "Hgb serum, Mean ± SE", "setting": "male wild rats; control 11.92 ± 0.3813", "result": "11.4 ± 0.2358", "unit": "g/dL"}, {"measurement": "PT (prothrombin time) serum, Mean ± SE", "setting": "male wild rats; control 21.25 ± 2.212", "result": "37.43 ± 1.329", "unit": "s"}, {"measurement": "AST serum, Mean ± SE", "setting": "male wild rats; control 92.37 ± 5.279", "result": "130.8 ± 8.149", "unit": "U/L"}, {"measurement": "ALT serum, Mean ± SE", "setting": "male wild rats; control 184.8 ± 4.632", "result": "225.5 ± 1.679", "unit": "U/L"}, {"measurement": "Cellular infiltration", "setting": "liver of male wild rats [1]", "result": "++ ((++) Moderate (from 25–50%))"}, {"measurement": "Congested blood vessels", "setting": "liver of male wild rats [1]", "result": "++ ((++) Moderate (from 25–50%))"}, {"measurement": "Dilated blood sinusoids", "setting": "liver of male wild rats [1]", "result": "+ ((+) Slight (< 25%))"}, {"measurement": "Fatty deposition", "setting": "liver of male wild rats [1]", "result": "-"}, {"measurement": "Features of necrosis: Karyolysis", "setting": "liver of male wild rats [1]", "result": "+ ((+) Slight (< 25%))"}, {"measurement": "Features of necrosis: Karyorrhexis", "setting": "liver of male wild rats [1]", "result": "+ ((+) Slight (< 25%))"}, {"measurement": "Features of necrosis: Pyknosis", "setting": "liver of male wild rats [1]", "result": "++ ((++) Moderate (from 25–50%))"}, {"measurement": "Hemorrhage", "setting": "liver of male wild rats [1]", "result": "-"}, {"measurement": "Loss of liver architecture", "setting": "liver of male wild rats [1]", "result": "-"}, {"measurement": "Necrotic areas", "setting": "liver of male wild rats [1]", "result": "+ ((+) Slight (< 25%))"}, {"measurement": "Thickening of blood vessels", "setting": "liver of male wild rats [1]", "result": "-"}, {"measurement": "Vacuolated cytoplasm", "setting": "liver of male wild rats [1]", "result": "++ ((++) Moderate (from 25–50%))"}, {"measurement": "increase in p53 levels compared to the control", "setting": "p53", "result": 60.74, "unit": "%"}, {"measurement": "p53 immunoreactivity in liver sections", "setting": "p53", "result": "moderate brown immunoreactivity"}, {"measurement": "LPO, Mean ± SE", "setting": "liver of male wild rats [2]; control 1.458 ± 0.1402", "result": "1.660 ± 0.1817", "unit": "nmol/ mg protein"}, {"measurement": "GSH, Mean ± SE", "setting": "liver of male wild rats [2]; control 10.42 ± 0.4500", "result": "6.953 ± 0.1538", "unit": "ng/mg protein"}]}
